Where a name gives a salt, the structure may show the parent alone.
What was measured:
[1] = tested on: K562 cells, human proerythroblast cells; assay: Hemoglobin production in K562 cells (fluorescence of the porphyrin ring); format: cell-based; details: 144 h, test compound 6 μM, 3+3 days, non-stimulated state = 100%, read-out: production amount of hemoglobin, % of control (6 μM)
Method: K562 cells (obtained from ATCC), which are human proerythroblast cells, were seeded at a density of 1×10^5 cells/1 mL on a 24-well plate by using complete medium (RPMI-1640 medium comprising 10% bovine fetal serum). After adding the test compound having 1000× concentration (1 μL), the cells were incubated for three days in a CO2 incubator (37° C., 5% CO2). After exchanging the medium, the cells were further incubated for three days. Then, the cells were collected and counted. After adjusting them to have 3×10^5 cells, the amount of hemoglobin produced in the cells was determined by measuring fluorescence of the porphyrin ring. Specifically, the cells which had been collected by centrifugation were suspended in 2 M oxalic acid solution (500 μL) and boiled for 30 minutes under heating. After cooling the cells, the fluorescence intensity was measured by Fluorescence micro plate reader (Spectra MAX GeminiEM, manufactured by Molecular Devices Corporation) ([…]). When hemoglobin amount in non-stimulated state, i.e., without addition of any compound, was 100%, the production amount of hemoglobin induced by each compound was calculated (% of control).

[2] = tested on: HepG2 cells originating from human liver cancer; assay: EPO production in HepG2 cells (EPO ELISA of culture supernatant, 4% oxygen, 48 hrs); format: cell-based; details: test compound 3 μM, oxygen 4%, non-stimulated state = 100%, read-out: EPO production amount, % of control (3 μM)
Method: HepG2 cells originating from human liver cancer were seeded at a density of 1×10^4 cells per well on a 24-well plate by using minimum essential medium (MEM, manufactured by Sigma) comprising 10% bovine fetal serum. Next day, the medium was exchanged with Dulbecco's modified eagle medium (DMEM, manufactured by Sigma) comprising 10% bovine fetal serum lacking phenol red. Then, the test compound dissolved in DMSO was added thereto to obtain the final concentration of 3 μM or 10 μM while having 400 μl of the medium per well. The cells were incubated for 48 hrs in a CO2 incubator which had been adjusted to have oxygen concentration of 4%, followed by collecting the culture supernatant. The EPO concentration in the culture supernatant was immediately measured by using EPO ELISA kit (manufactured by Roche Diagnostics K.K.). Specific procedures were carried out according to the manufacturer's protocol included in the kit.
When EPO production amount in non-stimulated state, i.e., without addition of any compound, was 100%, the EPO production amount induced by each compound was calculated (% of control).

SMILES	activity at 6 µM [1] [%]	activity at 3 µM [2] [%]
CC(=O)N1c2ccccc2[C@H](Oc2cccc(F)c2)C[C@@H]1C (relative stereo) [Compound 28, cis-1-acetyl-4-(3-fluorophenoxy)-2-methyl-1,2,3,4-tetrahydroquinoline]	216	167
CC(=O)N1c2ccccc2[C@H](Oc2ccccc2F)C[C@@H]1C (relative stereo) [Compound 29, cis-1-acetyl-4-(2-fluorophenoxy)-2-methyl-1,2,3,4-tetrahydroquinoline]	201	305
CC(=O)N1c2ccccc2[C@H](Oc2ccc(F)cc2F)C[C@@H]1C (relative stereo) [Compound 30, cis-1-acetyl-4-(2,4-difluorophenoxy)-2-methyl-1,2,3,4-tetrahydroquinoline]	136	339
CC(=O)N1c2ccccc2[C@H](Oc2ccc(F)c(F)c2)C[C@@H]1C (relative stereo) [Compound 31, cis-1-acetyl-4-(3,4-difluorophenoxy)-2-methyl-1,2,3,4-tetrahydroquinoline]	156	302
CC(=O)N1c2ccc(F)cc2[C@H](Oc2ccc(F)cc2)C[C@@H]1C (relative stereo) [Compound 34, cis-1-acetyl-4-(4-fluorophenoxy)-6-fluoro-2-methyl-1,2,3,4-tetrahydroquinoline]	257	288
CC(=O)N1c2ccccc2[C@H](OCc2ccccc2)C[C@@H]1C (relative stereo) [Compound 36, cis-1-acetyl-2-methyl-4-benzyloxy-1,2,3,4-tetrahydroquinoline]	83	114
CCOC(=O)c1ccc2c(c1)[C@H](Nc1ccc(Cl)cc1)C[C@H](C)N2C(C)=O (relative stereo) [Compound 41, ethyl cis-1-acetyl-4-[(4-chlorophenyl)amino]-2-methyl-1,2,3,4-tetrahydroquinoline-6-carboxylate]	529	119
CC(=O)N1c2ccc(C(N)=O)cc2[C@H](Oc2ccc(F)cc2)C[C@@H]1C (relative stereo) [Compound 54, cis-1-acetyl-4-(4-fluorophenoxy)-2-methyl-1,2,3,4-tetrahydroquinoline-6-carboxamide]	186	148
CC(=O)N1c2cc(F)ccc2[C@H](Oc2ccc(F)cc2)C[C@@H]1C (relative stereo) [Compound 56, cis-1-acetyl-7-fluoro-4-(4-fluorophenoxy)-2-methyl-1,2,3,4-tetrahydroquinoline]	119	213
CC(=O)N1c2ccccc2[C@H](Oc2ccc(O)cc2)C[C@@H]1C (relative stereo) [Compound 57, cis-1-acetyl-4-(4-hydroxyphenoxy)-2-methyl-1,2,3,4-tetrahydroquinoline]	221	251
CC(=O)N1c2ccccc2[C@H](Oc2cc(F)cc(F)c2)C[C@@H]1C (relative stereo) [Compound 62, cis-1-acetyl-4-(3,5-difluorophenoxy)-2-methyl-1,2,3,4-tetrahydroquinoline]	168	193
CC(=O)N1CCN(c2ccc(N[C@@H]3C[C@H](C)N(C(C)=O)c4ccccc43)cc2)CC1 (relative stereo) [Compound 77, cis-1-acetyl-4-{[4-(4-acetylpiperazinyl)phenyl]amino}-2-methyl-1,2,3,4-tetrahydroquinoline]	120	221
CC(=O)N1c2ccccc2[C@H](Nc2ccc(N3CCN(S(C)(=O)=O)CC3)cc2)C[C@@H]1C (relative stereo) [Compound 78, cis-1-acetyl-4-{[4-(4-methanesulfonylpiperazinyl)phenyl]amino}-2-methyl-1,2,3,4-tetrahydroquinoline]	210	217
CC(=O)N1CCN(c2ccc3c(c2)[C@H](Nc2ccc(Cl)cc2)C[C@H](C)N3C(C)=O)CC1 (relative stereo) [Compound 79, cis-1-acetyl-6-[(4-acetyl)piperazino]-4-[(4-chlorophenyl)amino]-2-methyl-1,2,3,4-tetrahydroquinoline]	186	476
CC(=O)N1c2ccc(C(N)=O)cc2[C@H](Nc2ccc(CC(=O)O)cc2)C[C@@H]1C (relative stereo) [Compound 105, cis-1-acetyl-4-[(4-carboxymethylphenyl)amino]-2-methyl-1,2,3,4-tetrahydroquinoline-6-carboxamide]	358	245
CC(=O)N1c2ccc(CO)cc2[C@H](Nc2ccc(Cl)cc2)C[C@@H]1C (relative stereo) [Compound 121, cis-1-acetyl-4-[(4-chlorophenyl)amino]-6-hydroxymethyl-2-methyl-1,2,3,4-tetrahydroquinoline]	149	222

SMILES	activity at 6 µM [1] [%]	activity at 3 µM [2] [%]
CC(=O)N1c2ccccc2C(Nc2ccccc2)CC1C (centres unmarked) [Compound 1, 1-acetyl-2-methyl-4-phenylamino-1,2,3,4-tetrahydroquinoline]	575	235
CCC(=O)N1c2ccccc2C(Nc2ccccc2)CC1C (centres unmarked) [Compound 3, 2-methyl-4-phenylamino-1-propionyl-1,2,3,4-tetrahydroquinoline]	912	187
CC(=O)N1c2ccc(F)cc2C(Nc2ccc(F)cc2)CC1C (centres unmarked) [Compound 5, 1-acetyl-6-fluoro-4-[(4-fluorophenyl)amino]-2-methyl-1,2,3,4-tetrahydroquinoline]	245	205
CC(=O)N1c2ccccc2C(Nc2ccc(Cl)cc2)CC1C (centres unmarked) [Compound 8, 1-acetyl-4-[(4-chlorophenyl)amino]-2-methyl-1,2,3,4-tetrahydroquinoline]	412	248
CC(=O)N1c2ccccc2C(Nc2ccc(C#N)cc2)CC1C (centres unmarked) [Compound 9, 1-acetyl-4-[(4-cyanophenyl)amino]-2-methyl-1,2,3,4-tetrahydroquinoline]	406	405
COc1ccc(NC2CC(C)N(C(C)=O)c3ccccc32)cc1 (centres unmarked) [Compound 10, 1-acetyl-4-[(4-methoxyphenyl)amino]-2-methyl-1,2,3,4-tetrahydroquinoline]	409	172
COc1cccc(NC2CC(C)N(C(C)=O)c3ccccc32)c1 (centres unmarked) [Compound 11, 1-acetyl-4-[(3-methoxyphenyl)amino]-2-methyl-1,2,3,4-tetrahydroquinoline]	361	163
COc1ccccc1NC1CC(C)N(C(C)=O)c2ccccc21 (centres unmarked) [Compound 12, 1-acetyl-4-[(2-methoxyphenyl)amino]-2-methyl-1,2,3,4-tetrahydroquinoline]	398	197
CC(=O)N1c2ccc(Br)cc2C(Nc2ccccc2)CC1C (centres unmarked) [Compound 13, 1-acetyl-6-bromo-2-methyl-4-phenylamino-1,2,3,4-tetrahydroquinoline]	365	229
CC(=O)N1c2ccc(C#N)cc2C(Nc2ccccc2)CC1C (centres unmarked) [Compound 14, 1-acetyl-6-cyano-2-methyl-4-phenylamino-1,2,3,4-tetrahydroquinoline]	440	257
CC(=O)N1c2ccccc2C(Nc2ccc(F)cc2)CC1C (centres unmarked) [Compound 15, 1-acetyl-4-[(4-fluorophenyl)amino]-2-methyl-1,2,3,4-tetrahydroquinoline]	409	348
CC(=O)N1c2ccccc2C(Nc2cccc(F)c2)CC1C (centres unmarked) [Compound 16, 1-acetyl-4-[(3-fluorophenyl)amino]-2-methyl-1,2,3,4-tetrahydroquinoline]	416	288
CC(=O)N1c2ccccc2C(Nc2ccc(Oc3ccccc3)cc2)CC1C (centres unmarked) [Compound 17, 1-acetyl-4-[(4-phenoxyphenyl)amino]-2-methyl-1,2,3,4-tetrahydroquinoline]	517	172
CC(=O)N1c2ccccc2C(Nc2ccc(OC(C)C)cc2)CC1C (stereo not drawn) [Compound 18, cis-1-acetyl-4-[(4-isopropoxyphenyl)amino]-2-methyl-1,2,3,4-tetrahydroquinoline.hydrochloride]	374	178
CC(=O)N1c2ccccc2C(Nc2ccc(N3CCOCC3)cc2)CC1C (stereo not drawn) [Compound 19, cis-1-acetyl-2-methyl-4-[(4-morpholinophenyl)amino]-1,2,3,4-tetrahydroquinoline.hydrochloride]	284	191
